# In the supplement of paper PMC4858399:
# Structures can show the parent of a compound that is named as a salt.
# What was measured:
# Details in all cases: exposure time 48 h
# [1] = tested on: Caenorhabditis elegans N2; assay: AC50 for larval growth inhibition (Hill fit); higher = less potent
# Summary of the method: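 C. elegans N2 L1 larvae, synchronised and plated at 50 per well in 96-well plates, were exposed for 48 h at 20°C to 0.5–200 µM chemical in K-medium with killed OP50 and 1% DMSO. Log-transformed extinction from a COPAS Biosort served as worm size, averaged per well. Wells containing at least 10 worms entered the fit. A constrained Hill fit by weighted genetic-algorithm regression yielded the AC50, censored when out of range.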
# [2] = tested on: Caenorhabditis elegans N2; assay: lowest effective concentration for larval growth inhibition (size below effect threshold); higher = less potent
# Summary of the method: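 Each well of a 96-well plate received 50 C. elegans N2 L1 larvae, which grew for 48 h at 20°C in K-medium containing killed bacteria, 1% DMSO and the chemical at 0.5, 1, 5, 10, 50, 100 or 200 µM. A Biosort recorded the extinction of every worm as its size, and these readings were log-transformed and averaged per well. The lowest effective concentration is defined as the first dose at which the plate-adjusted mean size falls below the threshold and stays below it at all higher doses; that threshold is 5.665.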
# [3] = tested on: Caenorhabditis elegans N2; assay: mean nematode size ln(EXT) after 48 h, plate-adjusted (DMSO control set to 6) (ln(EXT), control-adjusted); higher = larger nematodes / less growth inhibition
# Summary of the method: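 Chemical at 0.5–200 µM was tested on synchronised C. elegans N2 L1 larvae grown for 48 h at 20°C in K-medium with killed OP50 and 1% DMSO. Per-worm Biosort extinction, cleared of debris by a growth model, was natural-logged and averaged per well to give mean size. Plates were normalised by subtracting the vehicle control mean and adding 6.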
SMILES,AC50 for larval growth inhibition [1] [µM],lowest effective concentration [2] [µM],mean nematode size ln(EXT) (ln) ([3]; 0.5 µM),mean nematode size ln(EXT) (ln) ([3]; 1 µM),mean nematode size ln(EXT) (ln) ([3]; 5 µM),mean nematode size ln(EXT) (ln) ([3]; 10 µM),mean nematode size ln(EXT) (ln) ([3]; 50 µM),mean nematode size ln(EXT) (ln) ([3]; 100 µM),mean nematode size ln(EXT) (ln) ([3]; 200 µM)
Nc1ccc(S(=O)(=O)c2ccc(N)cc2)cc1 [4-Aminophenyl sulfone],> 200,200,5.93,5.92,5.94,5.86,5.83,5.8,5.56
Nc1ccc(Cl)cc1N [4-Chloro-o-phenylenediamine],39,50,5.89,5.85,5.91,5.85,5.36,5.03,5.01
Clc1ccc(C(Cl)(Cl)Cl)cc1 [4-Chlorobenzotrichloride],112,50,5.94,5.93,5.97,5.9,5.65,4.93,3.11
Cc1ccc(Cl)cc1 [4-Chlorotoluene],> 200,100,5.8,5.74,5.72,5.77,5.8,5.63,5.37
CC(C)(c1ccccc1)c1ccc(O)cc1 [4-Cumylphenol],110,100,6.04,5.96,5.97,5.84,5.92,5.3,4.34
CCCCCCCCCCCCc1ccc(S(=O)(=O)O)cc1 [4-Dodecylbenzenesulfonic acid],27.5,≤ 0.5,5.45,5.6,5.55,5.63,4.03,3.77,3.53
CCCCCCc1ccc(O)cc1O [4-Hexylresorcinol],181,50,6,5.89,5.83,5.84,5.6,5.03,4.47
O=C(O)c1ccc([N+](=O)[O-])cc1 [4-Nitrobenzoic acid],> 200,200,6,5.57,5.86,5.85,5.77,5.91,5.53
"O=C(Oc1ccc(Br)cc1)N1CCN2CCC1CC2 [4-bromophenyl 1,4-diazabicyclo[3.2.2]nonane-4-carboxylate]",> 200,50,5.84,5.83,5.81,5.83,5.65,5.6,5.33
Cn1sc(Cl)cc1=O [5-Chloro-2-methyl-3(2H)-isothiazolone],> 200,200,5.96,5.93,5.95,6,5.9,5.82,5.55
O=c1[nH]cc(F)c(=O)[nH]1 [5-Fluorouracil],162,50,5.8,5.84,5.91,5.82,5.63,5.3,4.19
CCCCCCCC1CCC(=O)O1 (stereo not given) [5-Heptyldihydro-2(3H)-furanone],182,200,5.94,5.81,5.79,5.79,5.76,5.87,4.09
NC(=O)N/N=C/c1ccc([N+](=O)[O-])o1 [5-Nitro-2-furaldehyde semicarbazone],> 200,50,5.78,5.76,5.75,5.76,5.65,5.61,5.24
CC(C)c1cccc(C(C)C)c1N1C(=O)c2ccc(O)cc2C1=O [5HPP-33],58.6,50,5.78,5.75,5.75,5.76,5.62,4.88,4.78
Cc1ccc2ncccc2c1 [6-Methylquinoline],> 200,200,5.98,5.83,5.87,5.76,5.74,5.67,5.52
"Cc1c2ccccc2c(C)c2c1ccc1ccccc12 [7,12-Dimethylbenz(a)anthracene]",110,5,6.05,5.87,5.53,5.48,5.02,4.89,4
Oc1cccc2cccnc12 [8-Hydroxyquinoline],> 200,200,5.89,5.92,5.91,5.83,5.78,5.72,5.56
Oc1cc2ccccc2c2ccccc12 [9-Phenanthrol],119,50,5.85,5.85,5.84,5.72,5.41,4.71,4.03

SMILES,AC50 for larval growth inhibition [1] [µM],lowest effective concentration [2] [µM],mean nematode size ln(EXT) (ln) ([3]; 0.5 µM),mean nematode size ln(EXT) (ln) ([3]; 1 µM),mean nematode size ln(EXT) (ln) ([3]; 5 µM),mean nematode size ln(EXT) (ln) ([3]; 10 µM),mean nematode size ln(EXT) (ln) ([3]; 50 µM),mean nematode size ln(EXT) (ln) ([3]; 100 µM),mean nematode size ln(EXT) (ln) ([3]; 200 µM)
C=CCCCCCCCCC(=O)O [10-Undecenoic acid],> 200,200,5.77,6,5.9,5.88,5.76,5.8,5.62
O=C1O[C@H]([C@@H](O)CO)C([O-])=C1O.[Na+] [(+)-Sodium L-ascorbate],132,50,5.84,5.88,5.78,5.85,5.29,5.05,3.96
CN1C(=O)CC[C@H]1c1cccnc1 [(-)-Cotinine],> 200,200,5.86,5.93,5.88,5.82,5.9,5.87,5.65
C/C=C/c1ccc(OC)cc1 [(E)-Anethole],> 200,200,6.06,5.98,6.01,6.06,5.97,5.96,5.49
"Cc1nn(C)c(Oc2ccccc2)c1C=NOCc1ccc(C(=O)OC(C)(C)C)cc1 [(Z,E)-Fenpyroximate]",< 0.5,≤ 0.5,4.99,4.67,4.2,4.2,4.09,4.05,3.39
CC[C@H](C)[C@H]1O[C@]2(C=C[C@@H]1C)C[C@@H]1C[C@@H](C/C=C(\C)[C@@H](O[C@H]3C[C@H](OC)[C@@H](O[C@H]4C[C@H](OC)[C@@H](O)[C@H](C)O4)[C@H](C)O3)[C@@H](C)/C=C/C=C3\CO[C@@H]4[C@H](O)C(C)=C[C@@H](C(=O)O1)[C@]34O)O2.CO[C@H]1C[C@H](O[C@H]2[C@H](C)O[C@@H](O[C@@H]3/C(C)=C/C[C@@H]4C[C@@H](C[C@]5(C=C[C@H](C)[C@@H](C(C)C)O5)O4)OC(=O)[C@@H]4C=C(C)[C@@H](O)[C@H]5OC/C(=C\C=C\[C@@H]3C)[C@]54O)C[C@@H]2OC)O[C@@H](C)[C@@H]1O [Abamectin],< 0.5,≤ 0.5,3.68,3.31,3.37,3.26,3.38,3.35,3.24
c1cc2c3c(cccc3c1)CC2 [Acenaphthene],> 200,200,6.14,5.74,6.03,6.08,5.6,5.77,5.37
C1=Cc2cccc3cccc1c23 [Acenaphthylene],> 200,200,5.93,5.96,5.94,5.98,5.92,5.83,5.37
CSC(=O)c1cccc2nnsc12 [Acibenzolar-S-Methyl],> 200,10,5.65,5.73,5.67,5.6,5.37,5.36,5.36
O=C(O)CCCCC(=O)O [Adipic acid],> 200,200,5.82,5.73,5.75,5.76,5.76,5.74,5.5
CCc1cccc(CC)c1N(COC)C(=O)CCl [Alachlor],> 200,200,6.11,6.07,6.12,6.1,5.76,5.74,5.1
ClC1=C(Cl)C2(Cl)C3C4C=CC(C4)C3C1(Cl)C2(Cl)Cl (stereo not given) [Aldrin],3.92,1,5.97,5.64,4.59,3.88,3.6,3.76,3.25
C=CCC1=C(C)C(OC(=O)C2C(C=C(C)C)C2(C)C)CC1=O (stereo not given) [Allethrin],> 200,50,5.9,5.91,5.87,5.86,5.64,5.59,5.23
"Nc1nc(N)c2nc(CNc3ccc(C(=O)NC(CCC(=O)O)C(=O)O)cc3)cnc2n1 (stereo not given) [Aminofolic acid, 4-]",> 200,200,5.89,5.91,5.86,5.86,5.82,5.82,5.39
CCCCc1oc2ccccc2c1C(=O)c1cc(I)c(OCCN(CC)CC)c(I)c1 [Amiodarone HCl],31.9,50,5.9,5.96,5.82,5.72,4.41,3.85,3.8
Cc1ccc(/N=C/N(C)/C=N/c2ccc(C)cc2C)c(C)c1 [Amitraz],200,200,6.02,5.93,6.14,5.97,5.95,6.57,4.72
C[C@]12CCC(=O)C=C1CC[C@@H]1[C@@H]2CC[C@]2(C)C(=O)CC[C@@H]12 [Androstenedione],> 200,200,5.85,5.91,5.86,5.99,5.89,5.84,5.66
